Reference: patent publication US10233205B2, “Magnetic resonance imaging contrast agent capable of detecting hydrogen peroxide and reducing reactive oxygen species” (Auburn University, priority 2015, dated 2019)

How the values were obtained:
[1] = T1-weighted relaxivity (r1) on 3 T clinical MRI scanner; assay type: physicochemical; conditions: for r1 (T1-weighted relaxivity): no oxidant; for r1 (T1-weighted relaxivity) / r1 after addition of H2O2 / r1, second series of experiments, after H2O2 (oxidized form) / r1, second series of experiments, before H2O2 (reduced form): 50 mM HEPES pH 7.00, 3 T; for r1 (T1-weighted relaxivity) / r1 after addition of H2O2: 25° C.; for r1, second series of experiments, after H2O2 (oxidized form) / r1, second series of experiments, before H2O2 (reduced form): 298 K
Source text: All MRI data were collected at the Auburn University MRI Research Center (Auburn, Ala.) on a Siemens Verio open-bore 3-T MRI clinical scanner. A 15-channel knee coil was used to simultaneously image 12-26 samples. An inversion recovery (IR) sequence was used that featured a non-selective adiabatic inversion pulse followed by a slice-selective gradient recalled echo (GRE) readout after a delay period corresponding to the inversion time (TI).^1-2 The GRE was a saturation readout, such that only one line of k-space was acquired per repetition time (TR). This method was selected to maximize both the signal strength and the accuracy of the T1 estimates. Specific imaging parameters were as follows: TR was set to 4 s, TI was varied from 4.8 to 2500 ms over 37 steps, the echo time (TE) was set to 3.6 ms, the flip angle equaled 90°, averages=1, slice thickness=5 mm, field of view=140×140 mm, matrix=128×128, resulting in a pixel size of 1.1×1.1×5.0 mm. All samples were run in 50 mM solutions of HEPES in water, buffered to pH 7.0 and kept at […]. The manganese content was systematically varied from 0.10 to 1.00 mM. The inverses of the T1 values were plotted versus the concentration of Mn(II) to obtain r1 values. All reported r1 values are averages from the results of two separate series of experiments. Each series of experiments used a different batch of 1.
Image analysis was performed using custom Matlab programs (Mathworks, Natick, Mass.). The initial TI=4.8 ms image served as a baseline to determine circular region of interest (ROI) boundaries for each sample; from these, the mean pixel magnitudes for each ROI were calculated. For each of the 36 subsequent TI images, the same ROI boundaries were applied and the mean pixel magnitude calculations were repeated. This gave consistent ROI spatial definitions and a corresponding time course of magnitudes for each of the samples over all the TI time points. Each sample's complex phase was used to correct the magnitude polarity to produce a complete exponential T1 inversion recovery curve. The Nelder-Mead simplex algorithm^3 was applied to each sample's exponential curve to estimate its corresponding T1 value.
(§1) For the relaxivity measurements, all samples were run in 298 K aqueous solutions containing 50 mM HEPES buffered to pH 7.00, using a 3 T field provided by a clinical MRI scanner. The data were fit to the indicated linear equations; the y-intercepts were within error of 1/T1 measurements associated with two control samples that contained no Mn(II): (A) 10 mM H2O2 in 50 mM HEPES buffer and (B) pure 50 mM HEPES buffer (both 0.46 s^−1).
as §1, with “All” for “For the relaxivity measurements, all”, “s^−1). The oxidation of 1 by 2,3-dichloro-5,6-dicyano-1,4-benzoquinone (DDQ) occurred in CH2Cl2. After the reaction occurred, the 2,3-dichloro-5,6-dicyanoquinol product was removed via filtration, the CH2Cl2 was removed, and the sample was dissolve in HEPES buffer for MRI analysis. The other oxidation reactions occurred entirely in HEPES buffer.” for “s^−1).”
The capability of 3 to serve as a MRI contrast agent was assessed with a 3 T clinical MRI scanner. All samples were run in 298 K aqueous solutions containing 50 mM HEPES buffered to pH 7.00, using a 3 T field provided by a clinical MRI scanner. All samples were prepared under air. The oxidized samples were prepared by directly adding H2O2 to solutions of 3 in aqueous solutions buffered to pH 7.0. The oxidation reactions were allowed to proceed for 30 min at 298 K before the T1 measurements were taken. […]

[2] = Superoxide scavenging, hypoxanthine-xanthine oxidase / lucigenin luminescence; assay type: biochemical; conditions: 50 mM Tris-HCl pH 8.0
Protocol: Superoxide was produced in situ from a reaction between xanthine and xanthine oxidase. The subsequent reaction of the O2^− with lucigenin provided a spectroscopic signal that can be used to provide a qualitative measure of an anti-oxidant's ability to degrade O2^−. The copper/zinc superoxide dismutase isolated from bovine erythrocytes (0.001-100 U/ml, Calbiochem) was used as a positive control. The assay was carried out in a total volume of 1 mL containing 50 mM tris (pH 8.0), hypoxanthine (50 μM), xanthine oxidase (0.005 U/ml, Calbiochem) and dark adapted lucigenin (5 μM) in the presence of a complex (0.1 nM-10 μM) or their vehicle. Reactions were carried out at room temperature and were initiated by the addition of xanthine oxidase to the hypoxanthine-containing solution. Luminescence was measured using a TD-20/20 (Turner Designs) luminometer and expressed as relative light units (RLU). Luminescence was measure for four 10 s integrations after an initial delay of 3 s. The four RLU values were averaged, and each concentration was expressed as a percent of that produced in the presence of vehicle. Each assay data point was performed in duplicate and assays were repeated three times.
Superoxide was generated using a hypoxanthine-xanthine oxidase reaction and detected using the chemiluminescent probe lucigenin. Reactions were carried out in 50 mM Tris-HCl (pH 8.0) containing either 1, 2, or Cu/Zn SOD from bovine erythrocytes (insert). Data for the various concentrations of 1, 2, and SOD are expressed as a percentage of luminescence in the presence of vehicle.
The ability of 3 to degrade superoxide was tested using a standard technique that uses the reaction between xanthine oxidase and xanthine to generate O2^− and a subsequent reaction with the chemiluminescent probe lucigenin to detect it. Reactions were carried out in 50 mM Tris-HCl (pH 8.0). Data for the various concentrations of Mn(II) complex are expressed as a percentage of luminescence in the presence of vehicle.

| Compound | r1 (T1-weighted relaxivity) [1] | superoxide scavenging [2] | r1 after addition of H2O2 ([1]; 10 mM H2O2) | r1, second series of experiments, after H2O2 (oxidized form) ([1]; 10 mM H2O2) | r1, second series of experiments, before H2O2 (reduced form) [1] | increase of relaxivity upon exposure to H2O2 [1] | r1 response to H2O2 ([1]; 10 mM H2O2) |
| --- | --- | --- | --- | --- | --- | --- | --- |
| CC#N.Cc1ccc(O)c(CN(CCN(Cc2ccccn2)Cc2ccccn2)Cc2ccccn2)c1.[Mn+2].[O-][Cl+3]([O-])([O-])[O-].[O-][Cl+3]([O-])([O-])[O-] [Complex 2, reference compound] | 4.39 mM⁻¹ s⁻¹ | successfully intercepts O2^− |  |  |  |  |  |
| CC#N.O=S(=O)([O-])C(F)(F)F.O=S(=O)([O-])C(F)(F)F.[Mn+2].[O-]c1ccc(O)cc1CN(CCN(Cc1ccccn1)Cc1ccccn1)Cc1ccccn1 [Complex 1, Acetonitrilo(N-(2,5-dihydroxy-benzyl)-N,N′,N′-tris(2-pyridinylmethyl)-1,2-ethanediamine)manganese(II) triflate] | 4.73 mM⁻¹ s⁻¹ | successfully intercepts O2^− | 5.30 mM⁻¹ s⁻¹ | 5.30 mM⁻¹ s⁻¹ | 4.73 mM⁻¹ s⁻¹ |  |  |
| cis-Dibromo(N,N′-bis(2,5-dihydroxybenzyl)-N,N′-bis(2-pyridinylmethyl)-1,2-ethanediamine)manganese(II) [Complex 3] | 5.46 (+0.19) mM^−1 s^−1 | successfully intercepts O2^− | 7.17 (+0.15) mM^−1 s^−1 | 7.32 mM⁻¹ s⁻¹ | 5.64 mM⁻¹ s⁻¹ | 31% | 1.71 mM⁻¹ s⁻¹ |
